Measured values from US10414778B2, “Methods for treatment of resistant cancer” (New Mexico Tech University Research Park Corporation, priority 2016, dated 2019).
Read-outs that look alike come from different tables or passages of the source.

Tests used:
Format in all cases: cell-based, human
HeLa cells = experiment: MTT in vitro growth inhibition assay, HeLa; conditions: two independent experiments
Description: (§1) Human cancer cell lines were obtained from the American Type Culture Collection (ATCC, Manassas, Va., USA), the European Collection of Cell Culture (ECACC, Salisbury, UK), and the Deutsche Sammlung von Mikroorganismen und Zellkulturen (DSMZ, Braunschweig, Germany). Human cervical adenocarcinoma HeLa cells were cultured in DMEM supplemented with 10% fetal bovine serum (FBS). Human mammary carcinoma MCF-7 cells were cultured in RPMI supplemented with 10% FBS. The U87 cells (ATCC HTB-14) were cultured in DMEM culture medium, while the A549 cells (DSMZ ACC107) were cultured in RPMI culture medium supplemented with 10% heat-inactivated FBS. The GBM Hs683 (ATCC HTB-138) and the T98G (ATCC CRL-1690) cell lines were cultivated in DMEM supplemented with 10% FBS. The GBM U251 cells (ECACC code 09063001) were cultured in 10% MEM. The human uterine sarcoma MES-SA and MES-SA/Dx5 cells were cultured in RPMI-1640 medium supplemented with 10% FBS with MES SA/Dx5 maintained in the presence of 500 nM Doxorubicin (Sigma™). The U373 glioblastoma cells (ECACC 08061901) were cultured in RPMI culture medium supplemented with 10% heat-inactivated FBS.
(§2) Spirodienones 4a-m were subjected to in vitro growth inhibition 3-(4,5-dimethylthiazol-2-yl)-2,5-diphenyltetrazolium bromide (MTT) assays against two cell lines, human HeLa cervical and MCF-7 breast adenocarcinomas.
(§3) All compounds were dissolved in DMSO at a concentration of either 100 mM or 50 mM prior to cell treatment. The cells were trypsinized and seeded at various cell concentrations depending on the cell type. The cells were grown for 24 h to 72 h, treated with compounds at concentrations ranging from 0.001 to 100 μM, and incubated for 48, 72, or 96 h in 100 or 200 μL media depending on the cell line used. Cells treated with 0.1% DMSO were used as a negative control, and cells treated with 1 μM phenyl arsine oxide (PAO) were used as a positive control.
(§4) To determine the activities of the compounds of the invention toward cancer cells, cell lines treated with different compounds were subjected to an in vitro MTT growth assay using human cervical cancer (HeLa) and human adenocarcinoma (MCF-7) cell lines. The MTT growth assay is a colorimetric assay that measures the metabolic activity of cells via reduction of 3-(4,5-dimethylthiazol-2-yl)-2,5-diphenyltetrazolium bromide (MTT). The reduction of MTT occurs in metabolically-active cells and is characterized by a purple color, which can be quantified via spectrophotometry. A higher absorbance reading indicates a metabolically-active cell, while a low absorbance reading indicates low metabolic activity due to, for example, inhibition of cellular proliferation or cell death.
(§5) The values in TABLE 4 are the mean and standard deviation calculated from two independent experiments, which were performed in 4 replicates.

MCF-7 cells = experiment: MTT in vitro growth inhibition assay, MCF-7; conditions: two independent experiments
Description: as §1, §2, §3, §4, §5

A549 cells = experiment: MTT growth inhibition, A549 NSCLC; conditions: 48 hours, up to 100 μM, FIGS. 4-7
Description: as §1, §3
Drug-resistant cell lines (i.e., glioma: Hs683, U373, U251, U87, T98G; lung cancer: A549, H2073; uterine carcinoma: MES-SA/Dx5) were complemented with drug-sensitive cell lines, H1993 lung cancer and MES-SA uterine cancer, which were used as controls. […] The GI50 values were calculated after 48-96 hours of treatment with the indicated compounds in replicate using the MTT growth assay.
Compounds 5l and 5g were further tested using the A549 lung cancer cell line to determine a dose-response effect on apoptosis-resistant cells. (FIGS. 4-7). […] The MTT assay was performed in four replicates after 48 hours of treatment with the indicated compounds relative to a DMSO control.

H2073 cells = experiment: MTT growth inhibition, H2073 drug-resistant NSCLC; conditions: Homo sapiens, NCI-H2073, MTT
Description: NSCLC cell lines H1993 and H2073 were obtained from the Hamon Center for Therapeutic Oncology Research at UT Southwestern Medical Center and cultured in RPMI-1640 medium (Mediatech, VA, USA) supplemented with 5% heat-inactivated FBS (Mediatech™), 100 units/mL penicillin and 0.1 mg/mL streptomycin (Sigma™). All cell lines were cultured in T25 flasks, maintained, and grown at 37° C., 95% humidity, 5% CO2.
as §3
Spirodienone 4l was evaluated against patient-derived NSCLC cell line H1993 and its drug-resistant variant, H2073. The patient-derived NSCLC cell line […] was obtained from a regrown tumor at a primary site after a patient relapsed several months later.
(§6) Due to their high potencies, compounds 5l and 5g were used to determine the effects of the compounds on drug-resistant tumor cells. Drug-resistant cell lines (i.e., glioma: Hs683, U373, U251, U87, T98G; lung cancer: A549, H2073; uterine carcinoma: MES-SA/Dx5) were complemented with drug-sensitive cell lines, H1993 lung cancer and MES-SA uterine cancer, which were used as controls. Bulbispermine and paclitaxel were also used as controls. The GI50 values were calculated after 48-96 hours of treatment with the indicated compounds in replicate using the MTT growth assay.
Compound 5l was further tested to determine the effect of compounds of the invention on drug-resistant tumor cells. A patient-derived non-small cell lung cancer (NSCLC) line, H1993, and the drug-resistant variant of H1993, H2073, were used for testing. The H1993 cell line was obtained from a lymph node metastasis isolated from the patient prior to chemotherapy. The H2073 cell line was derived from a regrown tumor at the primary site after the patient had relapsed several months after administration of the chemotherapy regimen.

MES-SA/Dx5 cells = experiment: MTT growth inhibition, MDR uterine sarcoma MES-SA/Dx5; conditions: Homo sapiens, MES-SA/Dx5, MTT
Description: as §1, §3
Compound 4l was also evaluated against the MDR uterine sarcoma cell line (MES-SA/Dx5 to evaluate whether the compounds of the invention were substrates for the MDR cancer efflux systems. The MES-SA/Dx5 cell line was established from the parent uterine sarcoma MES-SA, grown in the presence of increasing concentrations of doxorubicin and is known to be resistant to a number of P-gp substrates.
The selection of doxorubicin-resistant cells (MES-SA/Dx5 cell line) was performed by splitting the cells and allowing the cells to adhere overnight. The next day, the cells were initially exposed to a DOX concentration of 100 nM, which represented the GI50 concentration. The cells were maintained at this DOX concentration until their growth rate reached that of the untreated cells. The DOX concentration was then increased in two-fold increments following the same growth criteria at each concentration to a final DOX concentration of 500 nM. Each new DOX concentration required approximately 2 passages to reach the growth rate of the untreated cells.
as §6

[1] = Homo sapiens, HeLa, Table 4, 48-hour treatment, mean and standard deviation, read-out: HeLa Cell Viability GI50
[2] = Homo sapiens, MCF7, Table 4, 48-hour treatment, mean and standard deviation, read-out: MCF-7 Cell Viability GI50
[3] = Homo sapiens, HeLa, 48 h treatment, ± SD, read-out: cell viability GI50, HeLa
[4] = Homo sapiens, MCF7, MCF-7, 48 h treatment, ± SD, read-out: cell viability GI50, MCF-7

SMILES	GI50 (HeLa cells; [1])	GI50 (MCF-7 cells; [2])	GI50 (HeLa cells; [3])	GI50 (MCF-7 cells; [4])	other results
O=C1C=C[C@]23CC[N@](Cc4cc5c(cc42)OCO5)[C@H]3C1 [Compound 5a]	25.4 ± 3 µM	23.9 ± 0.7 µM	–	–	–
COc1cc2c(cc1OCc1ccccc1)[C@@]13C=CC(=O)C[C@@H]1[N@](CC3)C2 [Compound 5f]	16.7 ± 1.8 µM	16.8 ± 0.2 µM	–	–	–
COc1cc2c(cc1OC)[C@@]13C=CC(=O)C[C@@H]1[N@](CC3)C2 [Compound 5b]	63.5 ± 2.7 µM	> 100 µM	–	–	–
COc1cc2c(cc1OCc1ccccc1)C[N@@]1CC[C@@]23C=CC(=O)C[C@H]13 [Compound 5e]	11.8 ± 0.5 µM	14.5 ± 1 µM	–	–	–
O=C1C=CC2(C=C1)CCN(C(=O)C(F)(F)F)Cc1cccc(OCc3ccccc3)c12 [Compound 4i]	–	–	11 ± 2 µM	14 ± 2 µM	–
CO[C@@H]1C=C[C@@]23c4cc5c(cc4CN(C[C@@H]2O)[C@H]3C1)OCO5 [Haemanthamine, reference compound]	–	–	–	–	GI50 (HeLa cells; Table 4, 48-hour treatment, mean and standard deviation, read-out: HeLa Cell Viability GI50): 1.8 ± 0.3 µM; GI50 (MCF-7 cells; Table 4, 48-hour treatment, mean and standard deviation, read-out: MCF-7 Cell Viability GI50): 2.1 ± 0.2 µM
O=C1C=CC2(C=C1)CCN(C(=O)C(F)(F)F)Cc1cc3c(cc12)OCO3 [Compound 4a]	–	–	24 ± 2 µM	30 ± 2 µM	–
COc1cc([C@@H]2c3cc4c(cc3[C@H](O)[C@H]3COC(=O)[C@H]23)OCO4)cc(OC)c1OC [PODO, podophyllotoxin, reference compound]	–	–	–	–	anti-proliferative activity, dose-response (absorbance at 595 nm) (A549 cells): did not display such potent anti-proliferative activity
O=C1C=CC2(C=C1)CCN(C(=O)C(F)(F)F)Cc1cc3c(cc12)OCCO3 [Compound 4c]	–	–	21 ± 1 µM	34 ± 12 µM	–
O=C1C=C[C@]23CC[N@](Cc4cscc42)[C@H]3C1 [Compound 5k]	25.4 ± 5.2 µM	43.6 ± 2.1 µM	–	–	–
COc1cc2c(cc1OCc1ccccc1)C1(C=CC(=O)C=C1)CCN(C(=O)C(F)(F)F)C2 [Compound 4f]	–	–	34 ± 4 µM	34 ± 2 µM	–
CC(=O)O[C@H]1C(=O)[C@@]2(C)[C@H]([C@H](OC(=O)c3ccccc3)[C@]3(O)C[C@H](OC(=O)[C@H](O)[C@@H](NC(=O)c4ccccc4)c4ccccc4)C(C)=C1C3(C)C)[C@]1(OC(C)=O)CO[C@@H]1C[C@@H]2O [paclitaxel, reference compound]	–	–	–	–	anti-proliferative activity, dose-response (absorbance at 595 nm) (A549 cells): did not display such potent anti-proliferative activity; GI50 (H2073 cells; Table 3, 48-96 h treatment, read-out: GI50 in vitro values, lung cancer H2073): 2.4 µM; GI50 (H2073 cells; Table 5, 48-96 hours of treatment, read-out: GI50, Lung Cancer H2073): 2.4 µM; GI50 (MES-SA/Dx5 cells; Table 3, 48-96 h treatment, read-out: GI50 in vitro values, uterine sarcoma MES-SA/Dx5): 10 µM; GI50 (MES-SA/Dx5 cells; Table 5, 48-96 hours of treatment, read-out: GI50, Sarcoma MES-SA/Dx5): 10 µM
COc1cc2c(cc1OC)C1(C=CC(=O)C=C1)CCN(C(=O)C(F)(F)F)C2 [Compound 4b]	–	–	83 ± 5 µM	> 100 µM	–
O=C1C=C[C@]23CC[N@](Cc4cc(OCc5ccccc5)ccc42)[C@H]3C1 [Compound 5h]	7.9 ± 0.3 µM	14.4 ± 1 µM	–	–	–
COc1cc2c(cc1OCc1ccccc1)CN(C(=O)C(F)(F)F)CCC21C=CC(=O)C=C1 [Compound 4e]	–	–	38 ± 2 µM	48 ± 3 µM	–
O=C1C=CC2(C=C1)CCN(C(=O)C(F)(F)F)Cc1cc(OCc3ccccc3)ccc12 [Compound 4h]	–	–	16 µM	40 ± 1 µM	–
O=C1C=C[C@]23CC[N@](Cc4cc5c(cc42)OCCO5)[C@H]3C1 [Compound 5c]	12.7 ± 2.3 µM	18.6 ± 0.8 µM	–	–	–
O=C1C=C[C@]23CC[N@](Cc4cccc(OCc5ccccc5)c42)[C@H]3C1 [Compound 5i]	7.37 ± 0.9 µM	11 µM	–	–	–
O=C1C=CC2(C=C1)CCN(C(=O)C(F)(F)F)Cc1cc(OCc3ccccc3)c(OCc3ccccc3)cc12 [Compound 4g]	–	–	17 ± 1 µM	25 ± 2 µM	–
O=C1C=C[C@]23CC[N@](Cc4c2ccc2c4OCO2)[C@H]3C1 [Compound 5d]	60.5 ± 4.7 µM	72.5 ± 2.5 µM	–	–	–
O=C1C=CC2(C=C1)CCN(C(=O)C(F)(F)F)Cc1c2ccc2c1OCO2 [Compound 4d]	–	–	> 100 µM	> 100 µM	–
